Experimental data from patent publication US5668152A, “Protein kinase C inhibitors” (priority 1995, dated 1997).
Like-named read-outs stand apart in the source and are kept apart here.

How the values were obtained:
protein kinase C beta-2 = protein kinase C beta-2 (Homo sapiens, UniProt P05771); test: PKC Enzyme assay, beta II isozyme; type: biochemical
Procedure: (§1) PKC enzymes=alpha, beta I, beta II, gamma, delta, epsilon, eta and zeta.
(§2) Assay components in a total volume of 250 μL are the following:
(§3) Vesicles consisting of 120 μg/mL phosphatidylserine (Avanti Polar Lipids) and sufficient diacylglycerol (Avanti Polar Lipids) to activate the enzyme to maximum activity in 20 mM HEPES buffer (Sigma, St. Louis, Mo.), pH 7.5, 940 μM calcium chloride (Sigma, St. Louis, Mo.) for assaying the alpha, beta I, beta II and gamma enzyme only, 1 mM EGTA for all the enzymes, 10 mM magnesium chloride (Sigma, St. Louis, Mo.) and 30 μM (gamma-32P) ATP (DuPont). For all the enzymes either histone type HL (Worthington) or myelin basic protein is used as substrate. The assay is started by addition of protein kinase C enzyme incubated at 30° C. for 10 minutes and stopped by adding 0.5 mL of cold trichloroacetic acid (Amresco) followed by 100 μL of 1 mg/mL bovine serum albumin (Sigma, St. Louis, Mo.). The precipitate is collected by vacuum filtration on glass fiber filters employing a TOMTEC™ filtration system and quantified by counting in a beta scintillation counter.

protein kinase C beta-1 = protein kinase C beta-1 (Homo sapiens, UniProt P05771); test: PKC Enzyme assay, beta I isozyme; type: biochemical
Procedure: as §1, §2, §3

protein kinase C gamma = protein kinase C gamma (Homo sapiens, UniProt P05129); test: PKC Enzyme assay, gamma isozyme; type: biochemical
Procedure: as §1, §2, §3

protein kinase C alpha = protein kinase C alpha (Homo sapiens, UniProt P17252); test: PKC Enzyme assay, alpha isozyme; type: biochemical
Procedure: as §1, §2, §3

protein kinase C zeta = molecular target: T1, protein kinase C zeta (Homo sapiens, UniProt Q05513); test: PKC Enzyme assay, zeta isozyme; type: biochemical
T1 sequence (Q05513 1-592): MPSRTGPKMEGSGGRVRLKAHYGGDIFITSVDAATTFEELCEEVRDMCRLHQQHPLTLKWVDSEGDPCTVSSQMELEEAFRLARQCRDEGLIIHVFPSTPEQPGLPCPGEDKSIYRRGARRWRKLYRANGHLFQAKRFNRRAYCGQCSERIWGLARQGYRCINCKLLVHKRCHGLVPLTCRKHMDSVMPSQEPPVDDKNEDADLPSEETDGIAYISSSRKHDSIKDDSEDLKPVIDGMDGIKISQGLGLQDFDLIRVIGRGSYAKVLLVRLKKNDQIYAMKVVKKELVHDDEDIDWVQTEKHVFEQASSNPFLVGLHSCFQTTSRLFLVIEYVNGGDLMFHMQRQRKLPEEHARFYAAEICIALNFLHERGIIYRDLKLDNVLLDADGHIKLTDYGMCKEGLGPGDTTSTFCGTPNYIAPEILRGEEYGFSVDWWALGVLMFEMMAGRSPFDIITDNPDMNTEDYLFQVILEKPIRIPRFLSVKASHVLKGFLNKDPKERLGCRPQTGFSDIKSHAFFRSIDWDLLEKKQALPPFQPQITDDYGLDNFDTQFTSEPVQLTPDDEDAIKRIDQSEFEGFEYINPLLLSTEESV
Procedure: as §1, §2, §3

protein kinase C epsilon = molecular target: T2, protein kinase C epsilon (Homo sapiens, UniProt Q02156); test: PKC Enzyme assay, epsilon isozyme; type: biochemical
T2 sequence (Q02156 1-737): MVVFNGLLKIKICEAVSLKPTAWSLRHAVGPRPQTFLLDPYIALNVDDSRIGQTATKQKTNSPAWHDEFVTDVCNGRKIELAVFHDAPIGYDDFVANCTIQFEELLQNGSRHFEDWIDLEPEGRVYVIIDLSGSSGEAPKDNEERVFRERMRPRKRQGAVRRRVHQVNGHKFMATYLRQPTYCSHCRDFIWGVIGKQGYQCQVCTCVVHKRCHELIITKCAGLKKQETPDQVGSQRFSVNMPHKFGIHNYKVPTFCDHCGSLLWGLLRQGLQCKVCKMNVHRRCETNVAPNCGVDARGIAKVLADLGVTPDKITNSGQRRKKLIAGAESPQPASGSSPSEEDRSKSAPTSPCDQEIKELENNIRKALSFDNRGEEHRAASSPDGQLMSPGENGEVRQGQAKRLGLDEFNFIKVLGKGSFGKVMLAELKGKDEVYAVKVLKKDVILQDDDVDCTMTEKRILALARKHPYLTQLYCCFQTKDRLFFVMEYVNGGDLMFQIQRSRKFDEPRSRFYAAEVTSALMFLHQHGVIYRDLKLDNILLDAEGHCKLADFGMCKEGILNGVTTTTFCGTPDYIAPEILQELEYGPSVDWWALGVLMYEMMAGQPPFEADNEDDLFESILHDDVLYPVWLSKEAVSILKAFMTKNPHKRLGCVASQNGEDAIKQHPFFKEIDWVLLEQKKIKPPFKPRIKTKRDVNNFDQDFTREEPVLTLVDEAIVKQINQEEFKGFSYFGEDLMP
Procedure: as §1, §2, §3

protein kinase C delta = protein kinase C delta (Homo sapiens, UniProt Q05655); test: biochemical
Procedure: as §1, §2, §3

protein kinase C eta = protein kinase C eta (Homo sapiens, UniProt P24723); test: PKC Enzyme assay, eta isozyme; type: biochemical
Procedure: as §1, §2, §3

[1] = PKC beta-2, 30 μM ATP, 30° C., 10 minutes, read-out: IC50 β2
[2] = PKC beta-1, 30 μM ATP, 30° C., 10 minutes, read-out: IC50 β1
[3] = PKC gamma, 30 μM ATP, 30° C., 10 minutes, read-out: IC50 γ
[4] = PKC alpha, 30 μM ATP, 30° C., 10 minutes, read-out: IC50 α
[5] = PKC zeta, 30 μM ATP, 30° C., 10 minutes, read-out: IC50 ζ
[6] = PKC epsilon, 30 μM ATP, 30° C., 10 minutes, read-out: IC50 ε
[7] = PKC delta, 30 μM ATP, 30° C., 10 minutes, read-out: IC50 δ
[8] = PKC eta, 30 μM ATP, 30° C., 10 minutes, read-out: IC50 η

Chain of protein kinase C beta-2 (P05771 1-673 isoform P05771-2): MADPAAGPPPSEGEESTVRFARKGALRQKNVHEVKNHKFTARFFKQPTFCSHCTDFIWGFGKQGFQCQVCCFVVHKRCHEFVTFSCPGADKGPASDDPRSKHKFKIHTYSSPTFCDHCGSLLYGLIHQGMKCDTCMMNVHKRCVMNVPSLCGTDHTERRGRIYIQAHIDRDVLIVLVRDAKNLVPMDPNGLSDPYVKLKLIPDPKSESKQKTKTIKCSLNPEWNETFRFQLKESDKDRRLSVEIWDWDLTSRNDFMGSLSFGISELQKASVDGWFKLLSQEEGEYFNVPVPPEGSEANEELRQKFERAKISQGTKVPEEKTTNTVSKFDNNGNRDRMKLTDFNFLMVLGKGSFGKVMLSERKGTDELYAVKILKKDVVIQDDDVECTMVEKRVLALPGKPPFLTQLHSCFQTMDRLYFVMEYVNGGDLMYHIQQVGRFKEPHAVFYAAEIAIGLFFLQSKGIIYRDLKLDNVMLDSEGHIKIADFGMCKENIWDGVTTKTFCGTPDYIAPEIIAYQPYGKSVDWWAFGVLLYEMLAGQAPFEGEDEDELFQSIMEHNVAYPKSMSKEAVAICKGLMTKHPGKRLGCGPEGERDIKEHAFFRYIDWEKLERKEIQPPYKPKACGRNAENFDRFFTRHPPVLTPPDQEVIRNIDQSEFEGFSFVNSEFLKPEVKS
Chain of protein kinase C eta (P24723 whole entry): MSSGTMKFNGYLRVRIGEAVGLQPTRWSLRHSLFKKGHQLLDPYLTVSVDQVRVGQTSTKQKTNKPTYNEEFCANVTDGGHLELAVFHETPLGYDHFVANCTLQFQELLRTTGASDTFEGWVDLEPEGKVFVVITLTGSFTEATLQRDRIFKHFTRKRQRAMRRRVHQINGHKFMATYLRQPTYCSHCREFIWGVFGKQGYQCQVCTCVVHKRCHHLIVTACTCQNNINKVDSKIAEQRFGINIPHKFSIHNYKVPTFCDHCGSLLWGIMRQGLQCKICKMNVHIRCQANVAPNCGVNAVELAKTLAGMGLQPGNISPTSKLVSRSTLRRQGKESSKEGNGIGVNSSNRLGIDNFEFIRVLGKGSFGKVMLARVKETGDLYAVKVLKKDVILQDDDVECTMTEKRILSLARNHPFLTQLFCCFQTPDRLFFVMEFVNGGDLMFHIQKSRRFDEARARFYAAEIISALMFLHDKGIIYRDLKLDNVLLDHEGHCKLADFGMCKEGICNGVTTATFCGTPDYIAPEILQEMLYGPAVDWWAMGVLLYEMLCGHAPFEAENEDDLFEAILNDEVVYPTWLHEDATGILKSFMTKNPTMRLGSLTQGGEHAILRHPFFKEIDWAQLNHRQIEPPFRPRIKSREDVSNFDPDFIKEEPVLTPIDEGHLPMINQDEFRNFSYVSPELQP
Chain of protein kinase C delta (Q05655 whole entry): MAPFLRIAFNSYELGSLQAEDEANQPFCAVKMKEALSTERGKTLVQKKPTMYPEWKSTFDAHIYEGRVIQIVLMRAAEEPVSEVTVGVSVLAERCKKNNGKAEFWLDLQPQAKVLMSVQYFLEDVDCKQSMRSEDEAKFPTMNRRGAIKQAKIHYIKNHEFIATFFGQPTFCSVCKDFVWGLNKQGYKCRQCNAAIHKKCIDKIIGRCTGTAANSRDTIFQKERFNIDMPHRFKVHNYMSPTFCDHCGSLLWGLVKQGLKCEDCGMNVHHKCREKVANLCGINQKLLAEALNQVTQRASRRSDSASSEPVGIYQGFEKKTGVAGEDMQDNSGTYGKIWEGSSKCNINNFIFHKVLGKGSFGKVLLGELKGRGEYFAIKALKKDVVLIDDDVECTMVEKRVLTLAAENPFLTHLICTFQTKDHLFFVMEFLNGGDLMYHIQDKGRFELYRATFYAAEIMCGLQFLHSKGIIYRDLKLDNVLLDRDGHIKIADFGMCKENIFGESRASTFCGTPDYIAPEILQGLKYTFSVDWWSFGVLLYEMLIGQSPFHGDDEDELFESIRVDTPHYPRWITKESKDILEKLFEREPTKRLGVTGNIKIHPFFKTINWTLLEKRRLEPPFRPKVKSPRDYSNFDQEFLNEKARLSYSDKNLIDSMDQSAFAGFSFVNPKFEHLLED
Chain of protein kinase C beta-1 (P05771 whole entry): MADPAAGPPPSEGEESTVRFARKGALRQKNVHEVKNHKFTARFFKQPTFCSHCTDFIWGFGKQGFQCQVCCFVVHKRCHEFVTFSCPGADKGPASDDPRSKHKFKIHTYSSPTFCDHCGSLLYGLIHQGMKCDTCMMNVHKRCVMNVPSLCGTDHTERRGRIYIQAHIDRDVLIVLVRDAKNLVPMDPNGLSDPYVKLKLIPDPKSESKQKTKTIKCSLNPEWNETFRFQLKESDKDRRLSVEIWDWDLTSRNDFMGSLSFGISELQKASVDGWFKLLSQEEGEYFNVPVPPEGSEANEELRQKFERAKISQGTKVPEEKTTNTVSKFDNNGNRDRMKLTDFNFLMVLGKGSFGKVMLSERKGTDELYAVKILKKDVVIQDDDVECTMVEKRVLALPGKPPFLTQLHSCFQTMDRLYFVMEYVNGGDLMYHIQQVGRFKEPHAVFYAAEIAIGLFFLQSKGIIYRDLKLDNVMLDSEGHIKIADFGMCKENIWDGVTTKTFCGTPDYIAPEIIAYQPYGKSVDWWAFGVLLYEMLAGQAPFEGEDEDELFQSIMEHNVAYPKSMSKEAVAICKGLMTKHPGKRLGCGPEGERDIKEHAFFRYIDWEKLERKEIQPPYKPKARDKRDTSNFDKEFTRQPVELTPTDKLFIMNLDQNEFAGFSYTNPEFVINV

Cn1cc(C2=C(c3cn(C4CCN(C(=N)N)CC4)c4ccccc34)C(=O)NC2=O)c2ccccc21 [Example 44, 3-[1-(1-carboxamidine-piperidin-4-yl)-indol-3-yl)-4-(1-methyl-indol-3-yl)-1-pyrrole-2,5-dione]
IC50 (protein kinase C beta-2; [1]): 5 nM
IC50 (protein kinase C beta-1; [2]): 5 nM
IC50 (protein kinase C gamma; [3]): 82 nM
IC50 (protein kinase C alpha; [4]): 42 nM
IC50 (protein kinase C zeta; [5]): 4800 nM
IC50 (protein kinase C epsilon; [6]): 360 nM
IC50 (protein kinase C delta; [7]): 100 nM
IC50 (protein kinase C eta; [8]): 5 nM

Cn1cc(C2=C(c3cn(C4CCN(CC(F)(F)C(F)(F)C(F)(F)F)CC4)c4ccccc34)C(=O)NC2=O)c2ccccc21 [Example 46, 3-{1-[1-(2,2,3,3,4,4,4-Heptafluoro-butyl)-piperidin-4-yl]-indol-3-yl}-4-(1-methyl-indol-3-yl)-1H-pyrrole-2,5-dione]
IC50 (protein kinase C beta-2): 460 nM
IC50 (protein kinase C beta-1): 3000 nM
IC50 (protein kinase C gamma): > 100000 nM
IC50 (protein kinase C alpha): > 100000 nM
IC50 (protein kinase C zeta): > 100000 nM
IC50 (protein kinase C epsilon): > 100000 nM
IC50 (protein kinase C delta): > 100000 nM
IC50 (protein kinase C eta): > 100000 nM

Cn1cc(C2=C(c3cn(C4CCN(Cc5ccccc5)CC4)c4ccccc34)C(=O)NC2=O)c2ccccc21 [Example 47]
IC50 (protein kinase C beta-2; [1]): 50 nM
IC50 (protein kinase C beta-1): 100 nM
IC50 (protein kinase C gamma): 4000 nM
IC50 (protein kinase C alpha): 1000 nM
IC50 (protein kinase C zeta): 52000 nM
IC50 (protein kinase C epsilon): 3000 nM
IC50 (protein kinase C delta): 2000 nM
IC50 (protein kinase C eta; [8]): 500 nM

Cn1cc(C2=C(c3cn(C4CCN(c5ccccn5)CC4)c4ccccc34)C(=O)NC2=O)c2ccccc21 [Example 48]
IC50 (protein kinase C beta-2; [1]): 40 nM
IC50 (protein kinase C beta-1; [2]): 50 nM
IC50 (protein kinase C gamma; [3]): 5000 nM
IC50 (protein kinase C alpha; [4]): 2000 nM
IC50 (protein kinase C zeta; [5]): > 100000 nM
IC50 (protein kinase C epsilon; [6]): 2000 nM
IC50 (protein kinase C delta; [7]): 2000 nM
IC50 (protein kinase C eta; [8]): 2000 nM

O=C1NC(=O)C(c2cn(C3CCNCC3)c3ccccc23)=C1c1c[nH]c2ccccc12 [Example 50]
IC50 (protein kinase C beta-2; [1]): 20 nM
IC50 (protein kinase C beta-1; [2]): 30 nM
IC50 (protein kinase C gamma; [3]): 600 nM
IC50 (protein kinase C alpha; [4]): 300 nM
IC50 (protein kinase C zeta; [5]): 3000 nM
IC50 (protein kinase C epsilon; [6]): 500 nM
IC50 (protein kinase C delta; [7]): 500 nM
IC50 (protein kinase C eta; [8]): 100 nM

CN1CCC(n2cc(C3=C(c4c[nH]c5ccccc45)C(=O)NC3=O)c3ccccc32)CC1 [Example 51]
IC50 (protein kinase C beta-2; [1]): 10 nM
IC50 (protein kinase C beta-1; [2]): 20 nM
IC50 (protein kinase C gamma; [3]): 500 nM
IC50 (protein kinase C alpha; [4]): 200 nM
IC50 (protein kinase C zeta; [5]): 5000 nM
IC50 (protein kinase C epsilon; [6]): 50 nM
IC50 (protein kinase C delta; [7]): 400 nM
IC50 (protein kinase C eta; [8]): 40 nM

Cn1cc(C2=C(c3cn(CCCCOC4CC(O)C(CN)O4)c4ccccc34)C(=O)NC2=O)c2ccccc21 (centres unmarked) [Example 53]
IC50 (protein kinase C beta-2; [1]): 230 nM
IC50 (protein kinase C beta-1; [2]): 410 nM
IC50 (protein kinase C gamma; [3]): 4300 nM
IC50 (protein kinase C alpha; [4]): 3200 nM
IC50 (protein kinase C zeta; [5]): 51000 nM
IC50 (protein kinase C epsilon; [6]): 6600 nM
IC50 (protein kinase C delta; [7]): 3500 nM
IC50 (protein kinase C eta; [8]): 1700 nM

Cn1cc(C2=C(c3cn(CCCCOC4CC(O)C(CN)O4)c4ccccc34)C(=O)NC2=O)c2ccccc21 (centres unmarked) [Example 54]
IC50 (protein kinase C beta-2; [1]): 340 nM
IC50 (protein kinase C beta-1; [2]): 1100 nM
IC50 (protein kinase C gamma; [3]): 15000 nM
IC50 (protein kinase C alpha; [4]): 6700 nM
IC50 (protein kinase C zeta; [5]): 37000 nM
IC50 (protein kinase C epsilon; [6]): 4300 nM
IC50 (protein kinase C delta; [7]): 7900 nM
IC50 (protein kinase C eta; [8]): 2500 nM

CC(=O)NCC1OC(OCCCCn2cc(C3=C(c4cn(C)c5ccccc45)C(=O)NC3=O)c3ccccc32)CC1OC(C)=O (centres unmarked) [Example 55]
IC50 (protein kinase C beta-2; [1]): 50 nM
IC50 (protein kinase C beta-1; [2]): 260 nM
IC50 (protein kinase C gamma; [3]): 4200 nM
IC50 (protein kinase C alpha; [4]): 2300 nM
IC50 (protein kinase C zeta; [5]): 45000 nM
IC50 (protein kinase C epsilon; [6]): 6600 nM
IC50 (protein kinase C delta; [7]): 950 nM
IC50 (protein kinase C eta; [8]): 1200 nM

Cn1cc(C2=C(c3cn(CCCCOC4C[C@H](O)[C@@H](CO)O4)c4ccccc34)C(=O)NC2=O)c2ccccc21 (some centres unmarked) [Example 56]
IC50 (protein kinase C beta-2; [1]): 39 nM
IC50 (protein kinase C beta-1; [2]): 69 nM
IC50 (protein kinase C gamma; [3]): 3200 nM
IC50 (protein kinase C alpha; [4]): 1600 nM
IC50 (protein kinase C zeta; [5]): 49000 nM
IC50 (protein kinase C epsilon; [6]): 2400 nM
IC50 (protein kinase C delta; [7]): 930 nM
IC50 (protein kinase C eta; [8]): 1300 nM

Cn1cc(C2=C(c3cn(CCO[C@@H]4C[C@H](O)[C@@H](CN=[N+]=[N-])O4)c4ccccc34)C(=O)NC2=O)c2ccccc21 [Example 58]
IC50 (protein kinase C beta-2; [1]): 270 nM
IC50 (protein kinase C beta-1; [2]): 240 nM
IC50 (protein kinase C gamma; [3]): 38000 nM
IC50 (protein kinase C alpha; [4]): 4900 nM
IC50 (protein kinase C zeta; [5]): 46000 nM
IC50 (protein kinase C epsilon; [6]): 12000 nM
IC50 (protein kinase C delta; [7]): 4500 nM
IC50 (protein kinase C eta; [8]): 2500 nM

Cn1cc(C2=C(c3cn(CCOC4O[C@H](CO)[C@@H](O)[C@@H](N=[N+]=[N-])[C@H]4O)c4ccccc34)C(=O)NC2=O)c2ccccc21 (some centres unmarked) [Example 59]
IC50 (protein kinase C beta-2; [1]): 110 nM
IC50 (protein kinase C beta-1; [2]): 200 nM
IC50 (protein kinase C gamma; [3]): 9000 nM
IC50 (protein kinase C alpha; [4]): 4500 nM
IC50 (protein kinase C zeta; [5]): 48000 nM
IC50 (protein kinase C epsilon; [6]): 31000 nM
IC50 (protein kinase C delta; [7]): 2800 nM
IC50 (protein kinase C eta; [8]): 1600 nM

Cn1cc(C2=C(c3cn(CCOC4O[C@H](CO)[C@@H](O)[C@@H](O)[C@H]4N=[N+]=[N-])c4ccccc34)C(=O)NC2=O)c2ccccc21 (some centres unmarked) [Example 60]
IC50 (protein kinase C beta-2; [1]): 42 nM
IC50 (protein kinase C beta-1; [2]): 180 nM
IC50 (protein kinase C gamma; [3]): 24000 nM
IC50 (protein kinase C alpha; [4]): 4500 nM
IC50 (protein kinase C zeta; [5]): 75000 nM
IC50 (protein kinase C epsilon; [6]): 91000 nM
IC50 (protein kinase C delta; [7]): 7400 nM
IC50 (protein kinase C eta; [8]): 3600 nM
